By IC50 is commonly meant the concentration at which inhibition is half-maximal. High values mean lower potency, low ones higher potency.

Drawing on US7964613B2 (Asahi Kasei Pharma Corporation, priority 2007, dated 2011), this text covers inhibition in vivo and IC50 for 37 compounds.

In one assay the test system is rabbit normal intraocular pressure. Nature of the assay: Intraocular pressure reducing action. The assay is classed as in vivo, Japanese white rabbit. Particulars: Oryctolagus cuniculus, topical; 3 mM aqueous solution, 50 μl to the left eye; max IOP reduction (2, 4, 6 hours) / value immediately before administration; read-out: intraocular pressure reducing degree. As to the method: A Japanese white rabbit having a body weight of about 2 kg was placed in a positioner and naturalized for one week before the experiment. An opthalmologic local anesthesant (Benoxil) was administered to both eyes, and then intraocular pressure was measured by using a tonometer (Classic 30, Solan). A 3 mM aqueous solution of a test compound was administered in a volume of 50 μl to the left eye, and the right eye was not treated (control eye). The intraocular pressure values were measured for the left and right eyes immediately before, and 2, 4 and 6 hours after the administration of the aqueous solution of the test compound, and the difference of the measured values for the left and right eyes was considered an intraocular pressure reduction value of the test medicament at each measurement time. The largest difference of the values for the left and right eyes among the measured values at the measurement times (after 2, 4 and 6 hours) was considered the maximum intraocular pressure reduction value (max ? IOP) of each test medicament. The intraocular pressure reducing degree representing the intraocular pressure reducing action of each test medicament was calculated according to the following formula. Since rabbits show significant daily variation of intraocular pressure, daily variation is added when change of intraocular pressure is measured over time, and the intraocular pressure reducing action may be overestimated. Therefore, we used this calculation method of intraocular pressure reduction value in order to minimize the influence of the variation. Intraocular pressure reducing degree(%)=(max ? IOP/Intraocular pressure value immediately before administration)×100
Turning to `N[C@H]1CCN(S(=O)(=O)c2cccc3cncc(Br)c23)C1` [Example 1-1, (S)-3-Amino-1-(4-bromo-5-isoquinolinesulfonyl)pyrrolidine], the inhibition in vivo at 3000 µM is not below 20%.

Consider `N[C@@H]1CCN(S(=O)(=O)c2cccc3cncc(Br)c23)C1` [Example 1-2, (R)-3-Amino-1-(4-bromo-5-isoquinolinesulfonyl)pyrrolidine], for which the inhibition in vivo at 3000 µM was not below 20%.

Turning to `O=C(COc1ccc2nncn2n1)N[C@H]1CCN(S(=O)(=O)c2cccc3cncc(Cl)c23)C1` [Example 107, (S)-3-[2-([1,2,4]Triazolo[4,3-b]pyridazin-6-yloxy)acetyl]amino-1-(4-chloro-5-isoquinolinesulfonyl)pyrrolidine], the inhibition in vivo at 3000 µM was 10 to 20%.

As for `COCC(COC)OCC(=O)N[C@H]1CCN(S(=O)(=O)c2cccc3cncc(Cl)c23)C1` [Example 108, (S)-3-[2-(1,3-Dimethoxypropan-2-yloxy)acetyl]amino-1-(4-chloro-5-isoquinolinesulfonyl)pyrrolidine], the inhibition in vivo at 3000 µM was not below 20%.

With `CN(C)CCOCC(=O)N[C@H]1CCN(S(=O)(=O)c2cccc3cncc(Cl)c23)C1` [Example 111, (S)-3-[2-[2-(Dimethylamino)ethoxy]acetyl]amino-1-(4-chloro-5-isoquinolinesulfonyl)pyrrolidine], the inhibition in vivo at 3000 µM lay in the range of 5 to 10%.

Consider `COCC(=O)N[C@H]1CCN(S(=O)(=O)c2cccc3cncc(F)c23)C1` [Example 115, (S)-3-(2-Methoxyacetyl)amino-1-(4-fluoro-5-isoquinolinesulfonyl)pyrrolidine], for which the inhibition in vivo at 3000 µM was 5 to 10%.

With `COCC(=O)N(C)[C@H]1CCN(S(=O)(=O)c2cccc3cncc(F)c23)C1` [Example 116, (S)-3-[N-(2-Methoxyacetyl)-N-methyl]amino-1-(4-fluoro-5-isoquinolinesulfonyl)pyrrolidine], the inhibition in vivo at 3000 µM is 10 to 20%.

`CN(C)CC(=O)N[C@H]1CCN(S(=O)(=O)c2cccc3cncc(F)c23)C1` [Example 117, (S)-3-[(2-Dimethylamino)acetyl]amino-1-(4-fluoro-5-isoquinolinesulfonyl)pyrrolidine]: the inhibition in vivo at 3000 µM was in the range of 5 to 10%.

For `CN(C)CC(=O)N(C)[C@H]1CCN(S(=O)(=O)c2cccc3cncc(F)c23)C1` [Example 118, (S)-3-[N-(2-Dimethylamino)acetyl-N-methyl]amino-1-(4-fluoro-5-isoquinolinesulfonyl)pyrrolidine], the inhibition in vivo at 3000 µM is 5 to 10%.

The next assay deals with T1, human ROCK1 (Homo sapiens, UniProt Q13464).
T1 construct: His tag (N); host or cells: insect cells (Sf9)
T1 sequence (Q13464 1-727): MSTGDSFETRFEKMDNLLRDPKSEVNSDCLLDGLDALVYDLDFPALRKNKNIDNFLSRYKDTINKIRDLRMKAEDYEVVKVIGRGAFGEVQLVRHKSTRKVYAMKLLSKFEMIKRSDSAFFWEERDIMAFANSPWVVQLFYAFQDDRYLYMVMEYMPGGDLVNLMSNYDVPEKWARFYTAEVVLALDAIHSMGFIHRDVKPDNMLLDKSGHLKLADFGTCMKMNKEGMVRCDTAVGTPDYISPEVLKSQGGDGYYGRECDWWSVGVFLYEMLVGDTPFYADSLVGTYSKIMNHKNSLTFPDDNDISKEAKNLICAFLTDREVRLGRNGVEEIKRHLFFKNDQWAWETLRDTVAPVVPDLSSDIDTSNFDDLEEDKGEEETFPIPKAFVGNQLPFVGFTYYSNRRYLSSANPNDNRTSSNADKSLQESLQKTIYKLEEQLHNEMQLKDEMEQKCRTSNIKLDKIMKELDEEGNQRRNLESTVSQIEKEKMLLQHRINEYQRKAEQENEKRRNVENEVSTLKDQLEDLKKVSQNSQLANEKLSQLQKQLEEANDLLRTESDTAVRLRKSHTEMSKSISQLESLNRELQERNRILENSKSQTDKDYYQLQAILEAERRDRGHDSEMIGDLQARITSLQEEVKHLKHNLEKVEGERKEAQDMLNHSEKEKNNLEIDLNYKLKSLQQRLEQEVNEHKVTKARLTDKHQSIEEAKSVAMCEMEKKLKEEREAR
The assay can be described thus: Measurement of Rho kinase inhibitory activity (ELISA of MBS phosphorylation). The assay is classed as biochemical. Particulars: human ROCK1, MBS substrate, 100 μM ATP, 30° C. for 10 minutes. How it is done: In this test, human ROCK1 was used as Rho kinase, MBS (myosin binding subunit, subunit constituting myosin phosphatase) was used as the substrate of Rho kinase, and an anti-phosphorylated MBS antibody was used for detection of phosphorylation. The activity for inhibiting Rho kinase was determined by measuring phosphorylation of MBS by the Rho kinase by ELISA in the presence of an appropriately diluted test compound. As the Rho kinase used, a recombinant protein (N-terminal His-tagged recombinant human ROCK1 residues (1Met-[…])) was used, which was produced in insect cells (Sf9) using a sequence (1-727), of which activity was confirmed in the paper of Ishizaki et al. (Ishizaki, T. et al., FEBS Letters, 404, pp 118-124, 1997), based on the sequence of human ROCK1 (p 160 ROCK) described in the report of Ishizaki et al. (Ishizaki, T. et al., EMBO J., 15, pp 1885-1893, 1996). Further, as the MBS protein and anti-phosphorylated MBS antibody, those prepared according to the method described in the paper of Ito et al. (Ito, K et al., J. Physiol., 546, pp 823-836, 2003) were used.
A solution of MBS (Asahi Kasei Pharma, lot No, 040814n7-10) diluted with PBS to an appropriate concentration was added to an ELISA plate (Maxisorp, Nunc), and left, stand overnight at 4° C., and then the wells were washed twice with a washing solution (WB, washing buffer, 0.1% Tween 20/PBS). To the wells were added 1% bovine serum albumin (Sigma)/PBS, and left for 1 to 3 hours, and then the wells were washed 5 times with WB to prepare a substrate-immobilized plate. Onto this plate, a reaction mixture (5 mM MgSO4/0.1 M NaCl/20 mM HEPES (pH 7.5)/100 μM ATP/5 mM DTT), a test compound, and appropriately diluted human ROCK1 (Asahi Kasei Pharma, lot No, 030126.120-22) were added, and then reacted at 30° C. for 10 minutes. Then, 0.2 M EDTA (pH 7.5) was added to terminate the reaction, and the wells were washed 5 times with WB. A rabbit anti-phosphorylated MBS antibody solution (Asahi Kasei Pharma, lot No, 122676431) diluted 10,000 times with WB containing 1% bovine serum albumin was added to the wells, and after the reaction for 1 hour, the wells were washed 5 times with WB. Goat anti-rabbit IgG-HRP (Zymed) diluted 1,000 times with WB containing 1% bovine serum albumin was added to the wells as the secondary detection antibody and the mixture was reacted for 1 hour, and then the wells were washed 5 times with WB. An OPD (o-phenylenediamine) solution (1 mg/ml OPD, Sigma), 5.1 g/l of citric acid monohydrate, and 18.4 g/l of Na2HPO4.12H2O were added to the wells to develop color, […] was added 5 minutes later to terminate the color development, and absorbance was measured at 490 nm.
The inhibition ratio was calculated as follows. Inhibition ratio(%)=[…]
Further, the inhibition ratio was calculated with changing the concentration of the test compound, and a compound concentration providing an inhibition ratio of 50% was obtained as IC50.
As to `N[C@H]1CCN(S(=O)(=O)c2cccc3cncc(Br)c23)C1` [Example 1-1, (S)-3-Amino-1-(4-bromo-5-isoquinolinesulfonyl)pyrrolidine], the IC50 is less than 1000 nM.

For the compound `N[C@@H]1CCN(S(=O)(=O)c2cccc3cncc(Br)c23)C1` [Example 1-2, (R)-3-Amino-1-(4-bromo-5-isoquinolinesulfonyl)pyrrolidine], the IC50 is less than 1000 nM.

With `O=S(=O)(c1cccc2cncc(Br)c12)N1CC[C@H](NCc2ccccc2)C1` [Example 1-6], the concentration for half-maximal inhibition (IC50) is less than 1000 nM.

With `COc1ccc(CN[C@H]2CCN(S(=O)(=O)c3cccc4cncc(Br)c34)C2)cc1` [Example 1-7], the IC50 was less than 1000 nM.

As for `O=S(=O)(c1cccc2cncc(Br)c12)N1CC[C@H](NCc2ccc(O)cc2)C1` [Example 1-11], the half-inhibitory concentration (IC50) was less than 1000 nM.

As for `O=S(=O)(c1cccc2cncc(Br)c12)N1CC[C@H](NCCc2ccccc2)C1` [Example 1-13], the half-inhibitory concentration (IC50) was less than 1000 nM.

As to `O=S(=O)(c1cccc2cncc(Br)c12)N1CC[C@H](NC2CCC(O)CC2)C1` (stereo partly drawn) [Example 1-33], the IC50 was in the range of 1000 to 3000 nM.

In turn, `O=S(=O)(c1cccc2cncc(Br)c12)N1CC[C@H](NCc2ccc3c(c2)OCCO3)C1` [Example 1-38] registered an IC50 of less than 1000 nM.

As for `CCCN[C@H]1CCN(S(=O)(=O)c2cccc3cncc(C)c23)C1` [Example 8-5], the 50% inhibitory concentration (IC50) is less than 1000 nM.

Compound `Cc1cncc2cccc(S(=O)(=O)N3CC[C@H](NCc4ccccc4)C3)c12` [Example 8-6] registered an IC50 of less than 1000 nM.

For the compound `COc1ccc(CN[C@H]2CCN(S(=O)(=O)c3cccc4cncc(C)c34)C2)cc1` [Example 8-7], the IC50 was less than 1000 nM.

The compound `Cc1cncc2cccc(S(=O)(=O)N3CC[C@H](NCc4ccc5c(c4)OCO5)C3)c12` [Example 8-8] had an IC50 of less than 1000 nM.

As to `Cc1cncc2cccc(S(=O)(=O)N3CC[C@H](NCc4ccc([N+](=O)[O-])cc4)C3)c12` [Example 8-9], the 50% inhibitory concentration (IC50) was in the range of 1000 to 3000 nM.

`Cc1ccc(CN[C@H]2CCN(S(=O)(=O)c3cccc4cncc(C)c34)C2)o1` [Example 8-16] displayed a half-inhibitory concentration (IC50) of 1000 to 3000 nM.

In turn, `Cc1ccc(CN[C@H]2CCN(S(=O)(=O)c3cccc4cncc(C)c34)C2)s1` [Example 8-18] came in with a 50% inhibitory concentration (IC50) of 1000 to 3000 nM.

`Cc1cncc2cccc(S(=O)(=O)N3CC[C@H](NCC#N)C3)c12` [Example 8-73] returned an IC50 of 1000 to 3000 nM.

`C#Cc1cncc2cccc(S(=O)(=O)N3CC[C@H](NCc4ccco4)C3)c12` [Example 10-14] registered a 50% inhibitory concentration (IC50) of 1000 to 3000 nM.

For the compound `C#Cc1cncc2cccc(S(=O)(=O)N3CC[C@H](NC4CCOCC4)C3)c12` [Example 10-31], the half-inhibitory concentration (IC50) lay in the range of 1000 to 3000 nM.

For the compound `O=S(=O)(c1cccc2cncc(F)c12)N1CC[C@H](NCc2ccc3c(c2)OCO3)C1` [Example 18-8], the IC50 is less than 1000 nM.

Compound `Cc1ccc(CN[C@H]2CCN(S(=O)(=O)c3cccc4cncc(F)c34)C2)o1` [Example 18-16] registered an IC50 of 1000 to 3000 nM.

Regarding `CCN[C@H]1CCN(S(=O)(=O)c2cccc3cncc(Cl)c23)C1` [Example 19-4], the half-maximal inhibitory concentration (IC50) lay in the range of 1000 to 3000 nM.

As for `O=S(=O)(c1cccc2cncc(Cl)c12)N1CC[C@H](NCc2ccc3c(c2)OCO3)C1` [Example 19-8], the IC50 is less than 1000 nM.

`O=S(=O)(c1cccc2cncc(Cl)c12)N1CC[C@H](NCc2ccco2)C1` [Example 19-14]: the half-inhibitory concentration (IC50) lay within 1000 to 3000 nM.

In the case of `O=S(=O)(c1cccc2cncc(Cl)c12)N1CC[C@H](NCc2cccs2)C1` [Example 19-17], the half-inhibitory concentration (IC50) was 1000 to 3000 nM.

Compound `Cn1cccc1CN[C@H]1CCN(S(=O)(=O)c2cccc3cncc(Cl)c23)C1` [Example 19-21] had a half-maximal inhibitory concentration (IC50) of 1000 to 3000 nM.

With `Nc1ncc(Br)c2c(S(=O)(=O)N3CC[C@H](N)C3)cccc12` [Example 41-1, (S)-3-Amino-1-(1-amino-4-bromo-5-isoquinolinesulfonyl)pyrrolidine], the concentration for half-maximal inhibition (IC50) was less than 1000 nM.

For the compound `NCC1CCN(S(=O)(=O)c2cccc3cncc(Cl)c23)C1` (stereo not drawn) [Example 44, 3-(Aminomethyl)-1-(4-chloro-5-isoquinolinesulfonyl)pyrrolidine], the IC50 is less than 1000 nM.

`N[C@H]1CCN(S(=O)(=O)c2cccc3cncc(C(F)(F)F)c23)C1` [Example 47-1, (S)-3-Amino-1-(4-trifluoromethyl-5-isoquinolinesulfonyl)pyrrolidine]: the IC50 was in the range of 1000 to 3000 nM.

As to `CS(=O)(=O)N[C@H]1CCN(S(=O)(=O)c2cccc3cncc(Cl)c23)C1` [Example 50-1, (S)-3-(Methanesulfonylamino)-1-(4-chloro-5-isoquinolinesulfonyl)pyrrolidine], the half-maximal inhibitory concentration (IC50) fell in the range of 1000 to 3000 nM.

`NCC1CCN(S(=O)(=O)c2cccc3cncc(Cl)c23)CC1` [Example 52, 4-(Aminomethyl)-1-(4-chloro-5-isoquinolinesulfonyl)piperidine] registered a half-inhibitory concentration (IC50) of less than 1000 nM.
